Assays:
Assay type in all cases: cell-based
human TRESK (hTRESK) [1] = target: T1, human TRESK (hTRESK) (Homo sapiens, UniProt Q7Z418); test: whole-cell patch clamp in transfected HEK293 cells, dose-response
T1 sequence (Q7Z418 1-384): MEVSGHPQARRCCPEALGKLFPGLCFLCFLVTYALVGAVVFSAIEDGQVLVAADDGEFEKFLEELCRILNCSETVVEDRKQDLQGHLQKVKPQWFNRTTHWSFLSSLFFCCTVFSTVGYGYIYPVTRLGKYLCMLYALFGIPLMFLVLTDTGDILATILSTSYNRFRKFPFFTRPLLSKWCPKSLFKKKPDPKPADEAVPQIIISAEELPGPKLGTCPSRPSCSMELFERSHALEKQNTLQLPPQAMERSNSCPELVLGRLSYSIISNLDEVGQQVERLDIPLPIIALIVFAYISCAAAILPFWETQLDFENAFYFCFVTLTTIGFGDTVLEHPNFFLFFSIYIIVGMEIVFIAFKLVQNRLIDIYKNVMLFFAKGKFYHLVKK

mouse TRESK (mTRESK) = target: T2, mouse TRESK (mTRESK) (Mus musculus, UniProt Q6VV64); test: whole-cell patch clamp dose-response
T2 sequence (Q6VV64 1-394): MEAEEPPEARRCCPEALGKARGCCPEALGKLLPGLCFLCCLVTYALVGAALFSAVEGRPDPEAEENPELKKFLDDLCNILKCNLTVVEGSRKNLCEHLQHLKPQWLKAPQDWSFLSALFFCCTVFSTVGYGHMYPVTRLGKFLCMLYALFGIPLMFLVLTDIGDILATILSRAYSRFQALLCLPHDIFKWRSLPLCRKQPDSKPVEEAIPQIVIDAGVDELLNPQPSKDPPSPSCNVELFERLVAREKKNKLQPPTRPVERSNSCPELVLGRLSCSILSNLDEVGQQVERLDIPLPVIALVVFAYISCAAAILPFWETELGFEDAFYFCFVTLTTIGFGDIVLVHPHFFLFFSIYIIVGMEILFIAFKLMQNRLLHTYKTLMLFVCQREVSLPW

mouse TRAAK (mTRAAK) = target: T3, mouse TRAAK (mTRAAK) (Mus musculus, UniProt O88454); test: whole-cell patch clamp in transfected HEK293 cells, dose-response
T3 sequence (O88454 1-398): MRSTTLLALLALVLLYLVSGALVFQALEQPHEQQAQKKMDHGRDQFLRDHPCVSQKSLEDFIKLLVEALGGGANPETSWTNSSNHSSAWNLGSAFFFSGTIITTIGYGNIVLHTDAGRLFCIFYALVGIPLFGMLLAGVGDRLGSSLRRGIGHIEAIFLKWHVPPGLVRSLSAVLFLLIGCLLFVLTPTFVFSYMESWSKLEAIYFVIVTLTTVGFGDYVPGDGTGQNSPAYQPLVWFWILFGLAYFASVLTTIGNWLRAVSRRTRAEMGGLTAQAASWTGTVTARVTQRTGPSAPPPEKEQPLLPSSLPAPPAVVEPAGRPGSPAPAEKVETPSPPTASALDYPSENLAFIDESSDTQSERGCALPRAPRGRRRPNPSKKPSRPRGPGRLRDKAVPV

human TREK-2 (hTREK-2) = target: T4, human TREK-2 (hTREK-2) (Homo sapiens, UniProt P57789); test: as above
T4 sequence (P57789 1-538): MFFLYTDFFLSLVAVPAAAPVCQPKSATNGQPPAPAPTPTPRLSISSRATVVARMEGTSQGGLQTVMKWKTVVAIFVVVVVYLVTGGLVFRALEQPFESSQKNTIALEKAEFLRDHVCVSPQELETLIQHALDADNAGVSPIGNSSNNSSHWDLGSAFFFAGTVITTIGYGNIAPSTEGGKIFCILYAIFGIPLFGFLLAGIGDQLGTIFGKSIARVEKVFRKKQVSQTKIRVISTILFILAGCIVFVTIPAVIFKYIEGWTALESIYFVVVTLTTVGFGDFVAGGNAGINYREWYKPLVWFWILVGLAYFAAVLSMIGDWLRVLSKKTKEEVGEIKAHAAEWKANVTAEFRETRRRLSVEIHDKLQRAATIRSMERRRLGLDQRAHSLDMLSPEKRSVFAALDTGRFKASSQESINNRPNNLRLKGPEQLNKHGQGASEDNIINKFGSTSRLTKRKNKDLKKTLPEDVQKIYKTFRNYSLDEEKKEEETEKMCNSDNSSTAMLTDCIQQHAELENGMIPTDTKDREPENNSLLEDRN

rat TRESK = target: T5, rat TRESK (Rattus norvegicus, UniProt Q6Q1P3); test: whole-cell patch clamp in transfected HEK293 cells, […]
T5 sequence (Q6Q1P3 1-405): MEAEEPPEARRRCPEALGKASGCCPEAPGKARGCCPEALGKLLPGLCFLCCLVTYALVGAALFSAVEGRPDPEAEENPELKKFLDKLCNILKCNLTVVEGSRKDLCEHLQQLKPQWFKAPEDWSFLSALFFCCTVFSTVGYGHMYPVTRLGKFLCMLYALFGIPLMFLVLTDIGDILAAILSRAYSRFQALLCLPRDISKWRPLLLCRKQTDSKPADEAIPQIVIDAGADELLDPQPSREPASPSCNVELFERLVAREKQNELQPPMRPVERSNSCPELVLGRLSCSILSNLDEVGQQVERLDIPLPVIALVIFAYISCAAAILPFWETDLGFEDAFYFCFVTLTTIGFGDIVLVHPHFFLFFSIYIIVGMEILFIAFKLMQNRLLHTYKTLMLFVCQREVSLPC

human TRESK (hTRESK) [2] = target: T1, human TRESK (hTRESK); test: whole-cell patch clamp in transfected HEK293 cells, single concentration […]; details: HEK293, read-out: % inhibition at 20 μM

SMILES	IC50 (human TRESK (hTRESK) [1])	IC50 (mouse TRESK (mTRESK))	IC50 (mouse TRAAK (mTRAAK))	IC50 (human TREK-2 (hTREK-2))	whole-cell patch clamp in transfected HEK293 cells, 20 μM (rat TRESK)	inhibition at 20 µM (human TRESK (hTRESK) [2])
CC(C)=CC1C(C(=O)OCN2C(=O)C3=C(CCCC3)C2=O)C1(C)C (stereo not shown) [TM, Tetramethrin]	10.7 µM	34.9 µM	12.6 µM	75.6 µM	TM was also tested on rat and mouse TRESK orthologs, with similar inhibitory effects	–
CC1(C)C(C=C(Cl)Cl)C1C(=O)OCc1cccc(Oc2ccccc2)c1 (stereo not shown) [PM, permethrin]	–	–	–	–	–	27%
CC1(C)[C@H](C(=O)O[C@H](C#N)c2cccc(Oc3ccccc3)c2)[C@@H]1C=C(Br)Br [DM, deltamethrin]	–	–	–	–	–	30%

Source: publication PMC5737456 (Pain, 2017)
